The text below walks through data of patent US4560549A, “Method of relieving pain and inflammatory conditions employing substituted salicylamides” (Lever Brothers Company, priority 1983, dated 1985).

SMILES strings stand for the structures.

The subject of data set [1] is ears of hairless outbred mice inflamed with A-23187. The experiment in a line: Reduction in edema of A-23187 inflamed mouse ears by ear weight (Examples 8-14, Studies A and B). Format: in vivo, young, male, adult hairless outbred mice (Skh:hr-1 strain). Conditions: for Reduction in Edema (%): sacrificed at four hours; for anti-inflammatory activity (in words): under the test conditions, data of Table 2. From the text:
(§1) Acute inflammation is induced by the application of 4 nano mole of the antibiotic A-23187 to the ears of young, male, adult hairless outbred mice (Skh:hr-1 strain). Thereafter, one of the compounds AN-10, AMCF3-8, ACBXE-9, acryloyl AN-10, S-4-F and SAN-6 is applied to the affected ears and the degree of reduction in edema (inflammation) noted.
The method used in the subject Examples differs from the method used in the preceding Examples (4 through 7) in two respects.
(§2) Secondly, in the expression of the data, the objective parameter of ear weights is used as the sole data source (for the reduction of edema) as erythematous responses are not recorded. Ear weights are determined by sacrificing the animals four hours after initial application of the antibiotic A-23187 or other control material by the use of CO2 gas. Thereafter, the ears are excised by cutting along the characteristic ridge readily discernible along the inner aspect of the ears. Wet and dry ear weights are used to determine the extent of the edema or inflammation present.
In Study A, 28 test animals are randomized into four treatment groups of seven each and subjected to the following ear treatment regimen:
Each animal is dosed with a treatment consisting of a 10 microliter quantity of the assigned test material solution (or pure acetone in the case of the animals of Group D) applied to the outer aspect of both ears, i.e., 10 microliter of test material per ear. The concentrations of the respective materials in acetone solution are such that a 10 microliter dose of a solution of the antibiotic A-23187 contains 4 nano mole of such antibiotic. The corresponding quantity in the case of the AN-10 in acetone solution is 1.5 micromole. The animals of Groups A and B are initially treated with the acetone solution of A-23187. In the case of the animals of Group B alone, 10 microliter of the acetone solution of AN-10 is applied to the affected ears 1/2 hour after the application of the above-mentioned quantity of a solution in acetone of the antibiotic A-23187. The animals of Group C receive a 10 microliter dose per ear of the AN-10 in acetone solution alone. The animals of Group D receive a dose of 10 microliter per ear of pure acetone. All the test subjects are sacrificed four hours after the application of A-23187 to the animals of Groups A and B or the other test materials in the case of the animals of Groups C and D. The results are summarized in Table 2 noted below.
(§3) A second group of studies (Study B) is conducted on two consecutive days with two sets of mice (totalling […]) received from the same shipment.
On Day 2, using the second set of 40 mice, sub-divided into 8 groups of 5 each, the six compounds in question are applied as acetone solutions in the manner described under Study A to mice ears inflamed with A-23187 again, as described in Study A above. As with the studies conducted on Day 1, the remaining two groups of 5 animals each serve as controls and their ears are dosed with A-23187 and acetone respectively.
(§4) The amount of each salicylamide compound applied is kept constant, for Days 1 and 2, at 1.5 micromole per 10 microliter of test solution. Sacrifice begins four hours after application A-23187, on both days, and the results are recorded. Table 2 summarizes the results of the regimen of testing involved with each one of the 30 animals in question on Day 2 with the remaining 10 animals serving as controls as already noted.

The next data set concerns untreated ears of mice. Briefly: Inflammatory potential of the compounds on untreated mouse ears (Study B, Day 1). Format: in vivo, young, male, adult hairless outbred mice (Skh:hr-1 strain). Conditions: 1.5 micromole per 10 microliter on untreated ears.
Description: as §1, §2, §3
The first batch of 40 animals is divided into […] of 5 each. […] The remaining two groups of 5 animals each serve as controls and their ears are dosed with A-23187 and acetone respectively.
as §4

Data set [2] has as its system inflammation of mice ears caused by calcium ionophore (A-23187). The experiment in a line: Anti-inflammatory activity on inflammation of mice ears caused by calcium ionophore A-23187 (Examples 4-7). In kind it is in vivo, male outbred hairless mice. To be noted: for Reduction in Edema (%) / Reduction in Erythema (%): Table I, 1.5 micromole topically to ear 30 min after 4.0 nmole A-23187, assessed at 4 hrs; for anti-inflammatory activity (in words): at the concentration used (1.5 micromole), data of Table 1; for reduction of inflammation (in words): topical, 30 minutes after application of ionophore A-23187. The text has this:
In a group of 5 male outbred hairless mice, inflammation is induced on their ears by the topical application thereto of 4.0 nmole in acetone solution (total volume 10 microliter) of the known divalent calcium ionophore (antibiotic A-23187), which is derived from streptomyces chartreusis and is a member of a known class of compounds having ionophoric activity. See, e.g. Pressman, B. C., "Biological Applications of Ionophores", Ann. Rev. Biochem., 45, 501, 1976. […] See Marks, F., Furstenberger, G., and Kownatzki, E., "Prostaglandin E-mediated Mitogenic Stimulation of Mouse Epidermis in vivo by divalent cation ionophore A-23187 and by tumor promoter 12-O-tetradecanoyl phorbol-13-acetate, Cancer Res., 41, 696, 1981.
In each animal only one ear is treated, the other untreated ear serving as a control.
In Examples 4, 5 and 6 the compounds AN-10, APCF3-8 and AMCF3-8, respectively, are topically applied to the treated ears of different groups of five male outbred hairless mice 30 minutes following the topical application thereto of the ionophore A-23187. Specifically, 1.5 micromole of the amido compound in acetone solution (total volume 10 microliters) is applied topically to treated male outbred hairless mice ears 30 min. after topical application thereto of a calcium ionophore (A-23187, 4.0 nmole total volume to 10 microliter) in acetone. As already noted, in each case, each animal serves as its own control in that only one ear is subjected to said test regime while the other ear is left untouched. Erythema and edema are assessed 4 hrs. after application of the ionophore. In Control Example 7, 3,4',5-tribromosalicylanilide (TBS) is applied in the same manner.

A further data set concerns rats. Conditions: comparable toxicity for aspirin; cited from earlier work.
Data set [3] deals with Osborne-Mendel white rats. To be noted: single dose oral route, female Osborne-Mendel white rats; cited from earlier work.
The next data set has as its system mice backs (skin). Conditions: topical application to mice backs; cited from earlier work.
Setting [4] is: Study B, Day 2, 1.5 micromole per 10 microliter, A-23187 inflamed ears.

Take `CCCCCCCCC(=O)c1ccc(O)c(C(=O)Nc2cccc(C(=O)OCC)c2)c1` [ACBXE-9]: in data set [1] (setting [4]), the “Reduction in Edema (%)” value is reported as 76%. Further, the “anti-inflammatory activity (in words)” value in data set [1] is listed as “significant anti-inflammatory activity”. In addition, in the data set on untreated ears of mice, the “noticeable inflammation caused by the compound alone” value (“noticeable inflammation caused” for short) is “none of the six compounds being tested cause any noticeable inflammation”.
As to `CCCCCCCC(=O)c1ccc(O)c(C(=O)Nc2ccc(C(F)(F)F)cc2)c1` [APCF3-8], in data set [2], the “Reduction in Edema (%)” value is reported as 48%, the “Reduction in Erythema (%)” value came out at 57% and the “anti-inflammatory activity (in words)” value is given as “effective anti-inflammatories”.
As to `CCCCc1ccc(O)c(C(=O)Nc2cccc(C(F)(F)F)c2)c1` [S-4-F], the “Reduction in Edema (%)” value in data set [1] (setting [4]) amounted to 70%. In addition, the “anti-inflammatory activity (in words)” value in data set [1] was “significant anti-inflammatory activity”. The “noticeable inflammation caused” value in the data set with untreated ears of mice was “none of the six compounds being tested cause any noticeable inflammation”.
As for `O=C(Nc1ccc(Br)cc1)c1cc(Br)cc(Br)c1O` [TBS, 3,4',5-tribromosalicylanilide, reference compound], in data set [2], the “Reduction in Edema (%)” value was determined as 12%, the “Reduction in Erythema (%)” value was 35% and the “anti-inflammatory activity (in words)” value was “essentially inactive”.
For `COc1ccc2c(c1)c(CC(=O)O)c(C)n2C(=O)c1ccc(Cl)cc1` [indomethacin, reference compound], in data set [2], the “reduction of inflammation (in words)” value is “reduction of inflammation”.
`CC(=O)Oc1ccccc1C(=O)O` [aspirin, acetylsalicylic acid]: the LD50 entry in the data set on rats is on record as “about 1.75 g/kg. body weight”.
On to `CCCCCCCCCC(=O)c1ccc(O)c(C(=O)Nc2ccc([N+](=O)[O-])cc2)c1` [AN-10], for which the “Reduction in Edema (%)” value in data set [2] is reported as 59%; in data set [1] (Study A, 1.5 micromole per ear 1/2 hour after 4 nano mole A-23187) it was 55%; in data set [1] (setting [4]) it was 81%. The “Reduction in Erythema (%)” value in data set [2] is on record as 59%. For the same molecule, the entries for the “anti-inflammatory activity (in words)” value in data set [2] and in data set [1] were “effective anti-inflammatories” and “significant anti-inflammatory activity”, respectively. For the same molecule, the “noticeable inflammation caused” value in the data set with untreated ears of mice is on record as “none of the six compounds being tested cause any noticeable inflammation”. Further, in data set [3], the LD50 entry is on record as “greater than 2000 mg./kg”.
For the molecule `CCCCCCc1ccc(O)c(C(=O)Nc2ccc([N+](=O)[O-])cc2)c1` [SAN-6], the “Reduction in Edema (%)” value in data set [1] (setting [4]) came to 59%. Further, the “anti-inflammatory activity (in words)” value in data set [1] is on record as “significant anti-inflammatory activity”. Further, the “noticeable inflammation caused” value in the data set with untreated ears of mice was “none of the six compounds being tested cause any noticeable inflammation”.
For the molecule `CCCCCCCC(=O)c1ccc(O)c(C(=O)Nc2cccc(C(F)(F)F)c2)c1` [AMCF3-8], in data set [2] (AMCF3-8 versus APCF3-8), the “more edema reduction activity of the meta isomer than the para isomer” value is on record as “about 30%” and the “more erythema reduction activity of the meta isomer than the para isomer” value was “about 20%”. Further, in data set [2], the “Reduction in Edema (%)” value turned out to be 80%, the “Reduction in Erythema (%)” value amounted to 76% and the “anti-inflammatory activity (in words)” value was “effective anti-inflammatories”. In data set [1] (setting [4]), the “Reduction in Edema (%)” value is reported as 81%. Moreover, the “anti-inflammatory activity (in words)” value in data set [1] is reported as “significant anti-inflammatory activity”. In the data set with untreated ears of mice, the “noticeable inflammation caused” value is on record as “none of the six compounds being tested cause any noticeable inflammation”.
Regarding `CNc1ccc2oc(C[C@H]3O[C@@]4(CC[C@H]3C)O[C@H]([C@H](C)C(=O)c3ccc[nH]3)[C@H](C)C[C@H]4C)nc2c1C(=O)O` [A-23187, reference compound], the “acute inflammation on treated mice ears (in words)” value in data set [2] (topical application of A-23187, time and dose dependent) is listed as “Acute inflammation develops on treated mice ears within 4 hours”. Also, the “skin irritation (in words)” value with mice backs (skin) was “potent ability to cause skin irritation with white blood cell infiltration, erythema (skin reddening), edema, epidermal hypertrophy and subsequent epidermal hyperplasia”.
On to `C[C@]12CCC(=O)C=C1CC[C@@H]1[C@@H]2[C@@H](O)C[C@@]2(C)[C@H]1CC[C@]2(O)C(=O)CO` [hydrocortisone, reference compound], for which the “reduction of inflammation (in words)” value in data set [2] was “reduction of inflammation”.
As for `C=CC(=O)Oc1ccc(C(=O)CCCCCCCCC)cc1C(=O)Nc1ccc([N+](=O)[O-])cc1` [acryloyl AN-10], the “Reduction in Edema (%)” value in data set [1] (setting [4]) turned out to be 82%. Besides, the “anti-inflammatory activity (in words)” value in data set [1] is recorded as “significant anti-inflammatory activity”. Further, the “noticeable inflammation caused” value in the data set with untreated ears of mice was “none of the six compounds being tested cause any noticeable inflammation”.
